Measurements published in patent US10682320B2, “Method for inhibiting osteoclast development” (West Virginia University, priority 2012, dated 2020).
pIC50: −log10 of the molar value.

Experiments:
Assay type in all cases: cell-based
[1] = target: T1, STIM I/Orai I interaction (Homo sapiens, UniProt Q13586); assay: 2-APB-induced STIM I ct translocation to plasma membrane; details: 2-APB 50 μM, as early as 5 seconds
T1 construct: the cytosolic fragment of STIM I (STIM 1 ct); expressed in transfected cells
Description: HEK293 cells, maintained in DMEM with 10% FBS, were transfected with YFP-STIM I using Lipofectamine 2000 (Invitrogen, Carlsbad, Calif.) for 5 h (37° C.; 5% CO2) followed by a 24-h recovery. Cells were placed in 140 mM NaCl, 5 mM KCl, 1 mM MgCl2, 10 mM glucose, 15 mM HEPES, 0.1% BSA, 2 mM CaCl2 and analyzed by confocal microscopy for STIM I puncta formation using a Nikon phase-fluorescence microscope with CCD detectors (Diagnostic instruments, Sterling Heights, Mich.). Phase or transmitted light microscopy used 10-40× objectives and red, green, and blue filters to assemble color images. Fluorescence images used 1.4 NA 40× oil objectives. Red fluorescence used excitation at 530-560 nm, a 575 nm dichroic minor, and 580-650 nm emission filter. Transfection data were analyzed using Nikon NIS Elements Imaging Software. The effect of DCPA on STIM I/Orai I association was determined in wild-type HEK293 cells transfected with STIM I-YFP as described in Wang Y, Deng X, Zhou Y, Hendron E, Mancarelia S, Ritchie M F, Tang X D, Baba Y, Kurosaki T, Mori Y, Soboloff J, Gill DL, “STIM protein coupling in the activation of Orai channels”, Proc Natl Acad Sci USA, Vol. 106, pages 7391-7396, 2009. Experiments were performed on a Leica DMI 6000B fluorescence microscope controlled by Slidebook Software (Intelligent Imaging Innovations, Denver, Colo.).

[2] = target: T2, CRAC channel (Homo sapiens, UniProt Q13586); assay: CRAC channel activity as measured by intracellular calcium influx; details: for effect on intracellular calcium influx and toxicity in relation to CRAC channel inhibition: DCPA metabolites
Excerpt: The metabolism of DCPA by acylamidase produces DCA as mentioned above. DCA is then metabolized to N—OH-DCA and 6-OH-DCA. Both N—OH-DCA and 6-OH-DCA contribute to the systemic toxicity associated with in vivo administration of DCPA. […] Thus, the CRAC channel inhibitory activity of DCPA is not attributable to any of these toxic metabolites. Given that the CRAC channel inhibition associated with DCPA was not due to the more toxic metabolites, the present invention discloses haloanilide compositions of Formula I, and salts thereof that are not metabolized to DCA but that have similar CRAC channel inhibitory qualities of DCPA:
[drawing 7] wherein X is either chlorine or bromine, Y is either hydrogen or an alkyl group having a carbon chain length from 1 to 5 carbon atoms, and R is an alkyl group having a carbon chain length from 1 to 5 carbon atoms, except wherein X is not chlorine when Y is hydrogen and R is an ethyl group. Synthesis routes for N-(3,4-dibromophenyl)propanamide [also referred to as “DBPA” or “N-(3,4-bibromophenyl)propionamide”], N-(3,4-dichlorophenyl)-N-methylpropanamide [also referred to as “N-Methyl Propanil”; or “N-Methyl-DCPA”; or “NMP”; or “NM Propanil”; or “N-(3,4-dichlorophenyl)-N-methylpropionamide”; or “N,N-Methyl, Propyl-CA” (CA=carboxamide)], 3,4-dichloro-N-methyl-N-isobutyramide [also referred to as “N-(3,4-dichlorophenyl)-N,2-dimethylpropanamide”; or “DNMI”], N-(3,4-dichlorophenyl)-2-dimethylpropanamide, N-(3,4-dichlorophenyl)isobutyramide [also referred to as “DNI” or “N-Isobutyl-CA” (CA=carboxamide)], and N-(3,4-dichlorophenyl)-N-methylisobutyramide [also referred to as “N,N-Me, Isobutyl-CA” (CA=carboxamide)]. Each of the haloanilide compositions of this invention have undergone in vitro toxicity testing on Jurkat cells—this is a T cell line that is sensitivity to toxic effects and thus, was used to determine the effect of the compounds on viability. Each of the compositions of Formula I are capable of inhibiting CRAC channel activity as measured by intracellular calcium influx. […] FIGS. 4 and 5 show chemical structures of preferred haloanilide compositions of this invention.

[3] = target: T2, CRAC channel; assay: CRAC channel activity by Fura-2 fluorescence in Jurkat cells after thapsigargin; design: endogenous in cells; host or cells: Jurkat cells; details: 100 uM, 10 minutes before thapsigargin
Description: Ratiometric imaging of intracellular Ca^2+ using fura-2 was as described (see, Zhou et al., 2009 above). Briefly, cells on coverslips, in cation safe solution (107 mM NaCl, 7.2 mM KCl, 1.2 mM MgCl2, 11.5 mM glucose, 20 mM HEPES-NaOH, pH 7.2) were loaded with fura-2 acetoxymethyl ester (2 μM) for 30 min at 24° C. Cells were washed and fluorescent probe was allowed to de-esterify for 30 min. From signal remaining after saponin permeabilization, ˜85% of the dye was confined to the cytoplasm (see, Ma H-T, Patterson R L. van Rossum D B. Birnbaumer L, Mikoshiba K, Gill D L, “Requirement of the inositol trisphosphate receptor for activation of store-operated Ca^2+ channels”, Science, Vol. 287, pages 1647-1651, 2000). Ca^2+ measurements were made using a Leica DMI 6000B fluorescence microscope controlled by Slidebook Software. Fluorescence emission at 505 nm was monitored while alternating between 340 and 380 nm excitation wavelengths at a frequency of 0.67 Hz; intracellular Ca^2+ measurements are shown as 340/380 nm emission ratios obtained from groups (35-45) of single cells. Measurements shown are representative a minimum of three independent experiments.
N-(3,4-dibromophenyl)propanamide]. Jurkat cells, a T cell line that is very sensitive to DCPA, was cultured with the indicated compounds, DCPA, DBPA, and ethanol (EtOH). CRAC channel activity was monitored using Fura-2 fluorescence using standard known techniques. Cells were incubated in each composition at 100 uM for 10 minutes prior to addition of the SERCA inhibitor thapsigargin (Tg) to induce SOCe. Decreased CRAC channel activity is clearly evident with DCPA and DBPA.
Jurkat cells, a T cell line that is very sensitive to DCPA, was cultured with the indicated compositions of the present invention, namely, DNI, NM Propanil, and DNMNI. CRAC channel activity was monitored using Fura-2 fluorescence using standard known techniques. Cells were incubated in each composition at 100 uM for 10 minutes prior to addition of the SERCA inhibitor thapsigargin (Tg) to induce SOCe. Decreased CRAC channel activity is clearly evident with each of the compositions of the present invention. […] Each of the compositions of this invention achieve the results achieved with the known DCPA but without the burden of toxicity of DCPA that would accompany further metabolism of DCPA.

[4] = tested on: human monocytes differentiating into osteoclasts; assay: Human osteoclast differentiation in vitro (multinucleation, TRAP); details: 10 and 100 μM, 8 days after RANKL
Description: Human monocytes were isolated from normal buffy coat cells (60-80 ml) obtained with approval of institutional review boards by separation from donor blood, the white-cell depleted blood retained for clinical use. Human monocyte culture and differentiation were as reported (see, Yaroslayskly B B, Zhang Y, Kalla S E, Garcia P V, Sharrow A C, Li Y, Zaidi M, Wu C, Blair H C, “NO-dependent osteoclast motility: Reliance on cGMP-dependent protein kinase I and VASP”, J Cell Sci I, Vol. 18, pages 5479-5487, 2005). Briefly, human monocytes cells were isolated from buffy coat on ficoll lymphocyte separation media and cultured at ˜6×10^5 cells per cm^2 in monocyte maintenance medium, Dulbecco's modified essential medium (DMEM) with 20 ng/ml of human m-CSF and 10% FBS, for 24 hours (h). After 24 h in culture, the medium was changed to osteoclast differentiation medium containing in addition of human 50 ng/ml of RANKL, with the additional inhibitors or activators as specified in results. Human osteoclast cultures were generally maintained for a minimum of 7 days before analysis, or longer times as specified in results.
The effect of DCPA on human osteoclast differentiation 8 days after addition of RANKL was evaluated.

[5] = tested on: Store-Operated Calcium Entry (SOCE); assay: Store-Operated Calcium Entry (SOCE) inhibition dose response (FIG. 10)

T2 sequence (Q13586 23-685): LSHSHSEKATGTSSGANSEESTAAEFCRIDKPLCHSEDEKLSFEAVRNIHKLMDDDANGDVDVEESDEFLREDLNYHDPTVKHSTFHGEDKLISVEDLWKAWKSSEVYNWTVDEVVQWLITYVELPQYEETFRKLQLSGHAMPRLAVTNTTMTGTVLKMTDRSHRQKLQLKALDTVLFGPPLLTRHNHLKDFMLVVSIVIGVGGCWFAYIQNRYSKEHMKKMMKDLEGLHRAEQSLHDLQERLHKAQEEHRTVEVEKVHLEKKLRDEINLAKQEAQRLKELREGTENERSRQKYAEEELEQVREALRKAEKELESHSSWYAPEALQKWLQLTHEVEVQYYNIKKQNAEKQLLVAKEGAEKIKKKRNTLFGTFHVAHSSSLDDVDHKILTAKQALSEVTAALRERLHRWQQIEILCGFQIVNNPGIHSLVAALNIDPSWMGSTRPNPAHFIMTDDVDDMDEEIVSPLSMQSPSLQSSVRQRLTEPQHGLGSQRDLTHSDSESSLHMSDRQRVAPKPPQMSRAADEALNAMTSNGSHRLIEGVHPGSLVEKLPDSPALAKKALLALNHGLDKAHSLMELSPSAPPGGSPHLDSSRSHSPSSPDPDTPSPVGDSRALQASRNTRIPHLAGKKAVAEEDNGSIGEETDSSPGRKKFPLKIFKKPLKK
T1 sequence (Q13586 235-685 limits assumed): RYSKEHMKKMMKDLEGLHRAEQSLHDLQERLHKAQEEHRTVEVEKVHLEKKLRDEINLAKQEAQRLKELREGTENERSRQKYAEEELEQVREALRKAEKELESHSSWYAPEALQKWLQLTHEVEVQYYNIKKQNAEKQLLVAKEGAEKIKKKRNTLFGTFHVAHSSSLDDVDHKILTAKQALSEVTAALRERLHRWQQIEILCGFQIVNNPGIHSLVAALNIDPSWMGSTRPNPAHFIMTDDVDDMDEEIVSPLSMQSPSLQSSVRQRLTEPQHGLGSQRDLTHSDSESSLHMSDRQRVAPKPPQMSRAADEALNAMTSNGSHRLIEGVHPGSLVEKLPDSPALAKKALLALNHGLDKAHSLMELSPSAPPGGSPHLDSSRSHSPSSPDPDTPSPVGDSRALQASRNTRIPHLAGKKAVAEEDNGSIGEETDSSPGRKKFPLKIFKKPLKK

| Compound | effect on intracellular calcium influx and toxicity in relation to CRAC channel inhibition [2] | CRAC channel activity [3] | also measured |
| --- | --- | --- | --- |
| NCCOB(c1ccccc1)c1ccccc1 [2-APB, 2-aminoethoxydiphenylborate] |  |  | translocation of STIM I ct towards the PM [1]: significant translocation |
| Nc1cc(Cl)c(Cl)cc1O [6-OH-DCA] | not associated with CRAC channel inhibition |  |  |
| CCC(=O)Nc1ccc(Br)c(Br)c1 [DBPA, N-(3,4-dibromophenyl)propanamide] |  | Decreased |  |
| Nc1ccc(Cl)c(Cl)c1 [DCA, dichloroaniline] | not associated with CRAC channel inhibition |  |  |
| CCC(=O)Nc1ccc(F)c(F)c1 [DFPA, 3,4-difluoropropioanilide] |  |  | number of multinucleated cells [4]: no significant effect |
| CC(C)C(=O)Nc1ccc(Cl)c(Cl)c1 [DNI, N-(3,4-dichlorophenyl)isobutyramide] |  | Decreased |  |
| CC(C)C(=O)N(C)c1ccc(Cl)c(Cl)c1 [DNMNI, N-(3,4-dichlorophenyl)-N-methylisobutyramide] |  | Decreased |  |
| CCC(=O)N(C)c1ccc(Cl)c(Cl)c1 [NMP, N-(3,4-dichlorophenyl)-N-methylpropanamide] |  | Decreased | inhibition of CRAC channel activity as measured by intracellular calcium influx [2]: effective at lower concentrations; pIC50 ([5]; FIG. 10B): 3.98; dose response compared with known DCPA ([5]; doses 3 μM to 1 mM, FIG. 10A): at least equal |
| ONc1ccc(Cl)c(Cl)c1 [N—OH-DCA] | not associated with CRAC channel inhibition |  |  |
